Measurements as given in patent US10590393B2, “Retinoic acid enhanced human stem cell derived blood brain barrier model” (Wisconsin Alumni Research Foundation, priority 2012, dated 2020).
“And” between values parts separate entries of the source, which are not always exact repeats. Identical values can stand only once.

System: DF19-9-11T-derived BMECs
Assay: TEER of RA-treated DF19-9-11T-derived BMECs
Assay type: cell-based, human
Protocol: IMR90-4 and DF19-9-11T hiPSCs and H9 hESCs were maintained between passages 26-42 on […] (BD Biosciences) in mTeSR1™ medium ([…] Technologies) or on irradiated mouse embryonic fibroblasts (MEFs) in standard unconditioned medium (Dulbecco's Modified Eagle's Medium [DMEM]/Ham's F12 containing 20% Knockout Serum Replacer (Invitrogen), 1×MEM nonessential amino acids (Invitrogen), 1 mM L-glutamine (Sigma), 0.1 mM β-mercaptoethanol (Sigma), and human basic fibroblast growth factor (bFGF; 100 ng/mL for hiPSCs and 4 ng/mL for hESCs; Waisman Clinical Biomanufacturing Facility, University of Wisconsin-Madison)). Prior to differentiation, cells were passaged onto Matrigel (BD Biosciences) in mTeSR1 medium ([…] Technologies). After 2-3 days in mTeSR1, medium was switched to unconditioned medium (UM) lacking bFGF for 6 days. Human endothelial serum-free medium (hESFM; Invitrogen) supplemented with 20 ng/mL bFGF (R&D Systems) and 1% platelet-poor plasma derived bovine serum (Biomedical Technologies, Inc.) was then added for an additional 2-4 days.
All-trans RA (Sigma) was included at concentrations of 1-10 μM depending on the experiment. Equivalent DMSO was used as a vehicle control in some experiments. Cells were then dissociated with Versene (Invitrogen) and plated onto 12-well tissue culture polystyrene plates or 1.12 cm^2 Transwell-Clear® permeable inserts (0.4 μm pore size) coated with a mixture of collagen IV (400 μg/mL; Sigma) and fibronectin (100 μg/mL; Sigma). Culture plates were incubated with the coating for at least 30 min at 37° C., while the inserts were incubated for a minimum of 4 h at 37° C. hPSC-derived BMECs were then cultured in EC medium overnight (with or without RA). […] Also, our previous study used hPSCs exclusively maintained on MEFs.
FIG. 5 dictates the timing of co-culture experiments. […] Trans-endothelial electrical resistance (TEER) was measured immediately prior to co-culture using an EVOM voltohmmeter (World Precision Instruments, Sarasota, Fla., USA) and approximately every 24 h thereafter as necessary.

CC1=C(/C=C/C(C)=C/C=C/C(C)=C/C(=O)O)C(C)(C)CCC1 [RA, retinoic acid]
Maximum TEER (subculture: pericytes, co-culture phase: differentiated NPCs (11 days), 1% PDS): 4738±303 Ω × cm^2 and 4738 ± 303 (2) Ω × cm^2 | Average TEER (t = 24 h, between biological replicates): 1707 ± 417 Ω × cm^2 | Maximum TEER (t = 24 h, triplicate filters): 1968±288 Ω × cm^2
